Data taken from patent publication US11142524B2, “Substituted-3H-imidazo[4,5-c]pyridine and 1H-pyrrolo[2,3-c]pyridine series of novel Ectonucleotide Pyrophosphatase/Phosphodiesterase-1 (ENPP1) and stimulator for interferon genes (STING) modulators as cancer immunotherapeutics” (Stingray Therapeutics, Inc., priority 2018, dated 2021).

Experiments:
[1] = system: CT26 tumor; assay: CT26 tumor growth inhibition study; format: in vivo; conditions: 30 mg P.O. QD, FIG. 14
[2] = molecular target: T1, ENPP1 protein (Homo sapiens (Human), UniProt P22413); assay: ENPP1 Thermal Shift Assay (Example 1); format: binding
T1 sequence (P22413 whole entry, looked up, change not shown): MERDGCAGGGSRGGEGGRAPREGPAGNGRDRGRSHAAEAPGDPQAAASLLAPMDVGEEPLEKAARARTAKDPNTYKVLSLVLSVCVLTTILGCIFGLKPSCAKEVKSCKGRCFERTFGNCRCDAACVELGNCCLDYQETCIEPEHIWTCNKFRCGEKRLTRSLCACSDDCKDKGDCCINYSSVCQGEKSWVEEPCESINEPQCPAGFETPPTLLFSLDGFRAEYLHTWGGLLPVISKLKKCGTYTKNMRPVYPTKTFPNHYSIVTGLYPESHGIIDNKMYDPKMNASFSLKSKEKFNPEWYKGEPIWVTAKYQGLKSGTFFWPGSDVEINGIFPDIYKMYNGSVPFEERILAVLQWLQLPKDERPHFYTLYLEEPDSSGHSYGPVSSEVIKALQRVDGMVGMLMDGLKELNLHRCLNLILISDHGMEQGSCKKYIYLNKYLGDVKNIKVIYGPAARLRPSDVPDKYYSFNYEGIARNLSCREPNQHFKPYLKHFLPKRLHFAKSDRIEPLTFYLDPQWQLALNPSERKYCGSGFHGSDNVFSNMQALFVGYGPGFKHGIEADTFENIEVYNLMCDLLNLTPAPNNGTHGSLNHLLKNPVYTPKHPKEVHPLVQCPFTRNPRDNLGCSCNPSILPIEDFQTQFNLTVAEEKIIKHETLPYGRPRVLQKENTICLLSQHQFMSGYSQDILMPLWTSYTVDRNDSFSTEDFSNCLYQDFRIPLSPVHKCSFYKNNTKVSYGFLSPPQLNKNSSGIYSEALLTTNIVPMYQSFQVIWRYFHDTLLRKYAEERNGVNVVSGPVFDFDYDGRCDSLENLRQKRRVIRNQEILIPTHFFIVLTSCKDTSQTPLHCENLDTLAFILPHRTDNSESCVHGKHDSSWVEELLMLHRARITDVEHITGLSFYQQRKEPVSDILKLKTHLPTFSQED
Method: Assay Buffer (1 mM CaCl2, 0.2 mM ZnCl2, 50 mM Tris, pH 9.0) 5000×SYPRO Orange (ThermoFisher cat #S6651) 384-well PCR Plates
Each drug was prepared as a 10× solution in the assay buffer and SYPRO Orange was diluted to 10× concentration in water. Wells were set up in duplicate in a 384-well PCR plate as follows: 14 μL assay buffer, 2 μL ENPP1 Inhibitor or DMSO, 2 μL (0.5 μg) ENPP1 protein. Each well was mixed and incubated on ice for 5 minutes. Post incubation, 2 μL of SYPRO Orange was mixed into each well and followed by a gentle centrifugation. The protein melt reaction was run using ViiA7 software with temperatures beginning at 25° C. and increasing by 0.05° C./s to the maximum temperature of 99° C.
In a 384-well plate, 1.0 μg of ENPP1 protein incubated with 100 μM of the corresponding drug for 5 minutes. Each well exposed to increasing temperatures to determine an unfolding temperature of the protein.

[3] = system: B16F10 tumor; assay: Anti-tumor efficacy in B16F10 (melanoma) syngeneic model; format: in vivo, C57BL/6 mice
Excerpt: Animals: Female C57BL/6 (4-6 week's age from Taconic).
The B16F10 cells were propagated in DMEM cell culture medium containing 10% Fetal Bovine Serum. Cells were harvested in logarithmic growth phase and implanted subcutaneously ([…]) in the lower abdomen of mice. Tumor growth was monitored daily and after the tumors had reached 80 to 100 mm3, mice were randomized into groups consisting of 8 animals per group. Animals were euthanized when tumors reached around 2000 mm^3 or treatment regime completed or 20% of body weight loss, or developed ulceration and necrosis. Upon termination, tumor samples and blood were collected and analyzed for biomarkers.

[4] = system: MDA-MB-468; assay: Chou-Talalay Synergy Study with Olaparib, MDA-MB-468; format: cell-based; conditions: MDA-MB-468, 72 hours
Method: Cell Lines: MDA-MB-468 and UWB289.1 (ATCC). Cell Titer Glo (Promega cat #: G7572). 96-well TC treated, white assay plates
Cells were cultured according to ATCC tissue culture recommendations. Cells were plated in a 96-well tissue culture plate at a density of 1500 cells/well and allowed to settle overnight. The following day, both drugs were prepared at 10× concentration in the following ratios (Compound 22:Olaparib): 1:1, 10:1, and 1:10. The drugs were serially diluted to create an 8-point dose curve and 10 μL of each drug was added to the cells for a total volume of 100 μL/well. Plates were placed in a tissue culture incubator for 72 hours. Following incubation, each plate was treated with Cell Titer Glo according to vendor recommendation and luminescence was measured with the Envision Plate Reader. Data was analyzed using CalcuSyn software according to the methods described in Chou, Drug combination studies and their synergy quantification using the Chou-Talalay method, Cancer Res. 2010 Jan. 15; 70(2):440-6.
A Combination index (CI) value greater than 1 indicates […], equal to 1 indicates additive and less than 1 indicates synergy.

[5] = molecular target: Recombinant Human ENPP-2/Autotaxin Protein (Homo sapiens (Human), UniProt Q13822); assay: ENPP2 Inhibition Assay; format: biochemical
Method: Assay Buffer: 10 mM CaCl2, 5 mM MgCl2, 50 mM Tris, 0.02% Brij-35, pH 8.5. Substrate: 2 mM Bis(p-Nitrophenyl) Phosphate Sodium Salt (Sigma Cat # N3002). Enzyme: 0.2 ng/μL Recombinant Human ENPP-2/Autotaxin Protein (R&D Cat #5255-EN), PF-3080 in DMSO in 96-well clear assay plates
(§1) An eight point serial dilution of drugs was prepared in 10× in assay buffer with the final assay concentrations starting at 10 μM, 3 μM, 1 μM, 0.3 μM . . . 0 μM. A dilution of DMSO was included as a control. The assay plate was set up as follows with each well in duplicate: 15 μL assay buffer+10 μL ENPP1 inhibitor or DMSO+50 μL Substrate+25 μL Enzyme. Both the enzyme and substrate were added to opposite sides of the well to ensure that there was no interaction until all wells had both components. The plate was then centrifuged gently for 10 seconds, followed by an incubation at 37° C. for 45 minutes. The reaction was quantified by measuring absorbance at 405 nm using the Envision.
(§2) IC50 values are determined using GraphPad Prism 5 software. The data were entered as an X-Y plot into the software as percent inhibition for each concentration of the drug. The concentration values of the drug were log transformed and the nonlinear regression was carried out using the “sigmoidal dose-response (variable slope)” option within the GraphPad software to model the data and calculate IC50 values. The IC50 values reported are the concentration of drug at which 50% inhibition was reached.

[6] = molecular target: T1, ENPP1 protein; assay: ENPP1 Inhibition Assay (thymidine 5′-monophosphate p-nitrophenol ester substrate); format: biochemical
Method: Assay Buffer: 1 mM CaCl2, 0.2 mM ZnCl2, 50 mM Tris, pH 9.0. Substrate: 8 mM Thymidine 5′-monophosphate p-nitrophenol ester sodium salt (Sigma Cat #T4510). Enzyme: 5 ng/L Recombinant Human ENPP-1 Protein (R&D Cat #6136-EN-010) in DMSO in 96-well clear assay plates
as §1, with “81” for “15”, “DMSO+5” for “DMSO+50”, “Substrate+4” for “Substrate+25”
as §2

[7] = system: Saos-2 Cells; assay: ENPP1 Mineralization Assay; format: cell-based; conditions: FIG. 4, normalized against DMSO control
Method: Saos-2 Cells (ATCC CAT #HTB-85). Culture Medium. 24-well Tissue Culture Plate. Ascorbic Acid, 5 mg/mL (100×). β-Glycerophosphate, 1M (100×). Phosphate Buffered Saline. Alizarin Red, 40 mM pH 4.2. 70% Ethanol. Dye Extraction Reagent, 10% Methanol+10% Acetic Acid
Saos-2 cells were plated at a density of 1.5×10^6 cells/well and allowed to grow to 100% confluency over the following 1-2 days. Once completely confluent, the media was replaced with fresh media supplemented with 1× ascorbic acid, 1× β-glycerophosphate, and varying concentrations of ENPP1 inhibitor (if applicable). The addition of the mineralization components was considered Day 1. On Day 3, the media was gently aspirated with no wash followed by the addition of fresh media, mineralization components, and ENPP1 inhibitor (if applicable). On day 5, the media was gently aspirated and the cells were washed twice with PBS. The cells were then fixed with ice cold 70% ethanol for 1 hour at 4° C. Cells were washed once with PBS and stained with Alizarin Red for 30 minutes at room temperature with gentle rotation. Stained cells were washed three times with water for 10 minutes at room temperature with gentle rotation. After imaging cells, dye extraction reagent was added to each well and incubated for 30 minutes at room temperature. Alizarin red was quantified by measuring absorbance at a wavelength of 405 nm using the Envision.
FIG. 9 depicts a picture of results of a similar SAOS-2 mineralization assay. SAOS-2 cell were cultured in the presence and absence of ENPP1 inhibitor (compound 78, 107-02 or 108) and exposed to mineralization components for 3 days.

COc1cc(NC(=O)CSc2nc3cc(Cl)ncc3[nH]2)ccc1O [Compound 22, 2-((6-chloro-3H-imidazo[4,5-c]pyridin-2-yl)thio)-N-(4-hydroxy-3-methoxyphenyl) acetamide]
CT26 tumor growth inhibition [1]: 39% | Tm (° C.) ([2]; Table 2, FIG. 7, 100 μM drug, 1.0 μg ENPP1, NT 60.05): 61.37 °C | ΔTm at 100 µM ([2]; Table 2, FIG. 7, 100 μM drug, 1.0 μg ENPP1, read-out: ΔTm (° C.)): 1.32 °C | B16F10 tumor growth inhibition ([3]; 30 mg/kg dose (FIG. 6A / FIG. 13A)): 28% | B16F10 tumor growth inhibition ([3]; FIG. 6B / FIG. 13B, dose and route not stated): 27%

O=C(c1cc(Cc2n[nH]c(=O)c3ccccc23)ccc1F)N1CCN(C(=O)C2CC2)CC1 [Olaparib]
ED50 Drug Concentration Olaparib [4]: 185.065 µM

COc1ccc(NC(=O)CSc2nc3cc(Cl)ncc3[nH]2)cc1O [Compound 21, 2-((6-chloro-3H-imidazo[4,5-c]pyridin-2-yl)thio)-N-(3-hydroxy-4-methoxyphenyl) acetamide]
increasing the stability of recombinant ENPP1 protein ([2]; FIG. 3): effective | Tm (midpoint of the protein unfolding transition) of ENPP1 ([2]; FIG. 3, ENPP1 alone 64.2° C.): 67.84 °C | selective at inhibiting ENPP1 but not ENPP2 [5]: selective | inhibiting the activity of ENPP2 ([5]; FIGS. 2A and 2B): ineffective | inhibiting the activity of ENPP1 ([6]; FIG. 1): effective | IC50 ([6]; Table 1, FIG. 1, read-out: IC50): 0.0868 µM | inhibiting ENPP1 ability to produce mineralized nodules [7]: effective
